In patent US11622991B2, “Protocol for treatment of lupus nephritis” (Aurinia Pharmaceuticals Inc., priority 2017, dated 2023):

Columns and labels:
[1] = system: lupus nephritis; test: Predictability from early reduction in UPCR or C3/C4 normalization combined at 12 weeks (Tables 13-17); assay type: in vivo, human
Text: (§1) PR is defined as at least 50% reduction in proteinuria (i.e. UPCR).
(§2) Sensitivity is defined as the probability that a subject showing PR at 48 weeks would have shown a favorable result with regard to the marker at the designated early time point. In the tables below, this is the ratio of the number of subjects with favorable marker results (early drop or normalization) to the total subjects with 48 week PR.
(§3) Specificity is defined as the probability that a subject not showing PR at 48 weeks would have shown an unfavorable result with regard to the marker at the designated early time point. In the tables below, this is the ratio of the number of subjects with unfavorable marker results (no early drop or no normalization) to the total subjects with no 48 week PR.
(§4) Positive predictive value is defined as the probability that a subject showing a favorable result with respect to the marker at an earlier time point would show PR at 48 weeks. In the tables below, this is the ratio of the number of subjects with favorable marker results who have 48 week PR to those with favorable marker results (early reduction or yes column).
Negative predictive value is defined as the probability that a subject showing an unfavorable result with respect to the marker at an earlier time point would not show PR at 48 weeks. In the tables below, this is the ratio of the number of subjects with unfavorable marker results who have no PR at 48 weeks to the total subjects with unfavorable marker results (no early reduction or no column). […]

[2] = system: lupus nephritis; test: Predictability of week 48 partial remission from early C3/C4 normalization (Table 12); assay type: in vivo, human
Text: as §1, §2, §3, §4
Negative predictive value is defined as the probability that a subject showing an unfavorable result with respect to the marker at an earlier time point would not show PR at 48 weeks. In the tables below, this is the ratio of the number of subjects with unfavorable marker results who have no PR at 48 weeks to the total subjects with unfavorable marker results (no early reduction or no column).
Another criterion for effectiveness is normalization of C3 and/or C4 concentration in blood. The normal concentration of C3 is 90 mg/dl or greater and for C4 16 mg/dl or greater.

[3] = Early 25% reduction in UPCR or C3/C4 normalization, Week 12, 23.7 mg BID, number of patients
[4] = Early 25% reduction in UPCR or C3/C4 normalization, Week 12, 39.5 mg BID, number of patients
[5] = Early 25% reduction in UPCR or C3/C4 normalization, Week 24, 23.7 mg BID, number of patients
[6] = Early 25% reduction in UPCR or C3/C4 normalization, Week 48, 23.7 mg BID, number of patients
[7] = Early 30% reduction in UPCR or C3/C4 normalization, Week 12, 23.7 mg BID, number of patients
[8] = Early 30% reduction in UPCR or C3/C4 normalization, Week 12, 39.5 mg BID, number of patients
[9] = Early 30% reduction in UPCR or C3/C4 normalization, Week 24, 23.7 mg BID, number of patients
[10] = Early 30% reduction in UPCR or C3/C4 normalization, Week 48, 23.7 mg BID, number of patients
[11] = Early 30% reduction in UPCR or C3/C4 normalization, Week 48, 39.5 mg BID, number of patients
[12] = Early 35% reduction in UPCR or C3/C4 normalization, Week 12, 23.7 mg BID, number of patients
[13] = Early 35% reduction in UPCR or C3/C4 normalization, Week 12, 39.5 mg BID, number of patients
[14] = Early 35% reduction in UPCR or C3/C4 normalization, Week 24, 23.7 mg BID, number of patients
[15] = Early 35% reduction in UPCR or C3/C4 normalization, Week 48, 23.7 mg BID, number of patients
[16] = Early 35% reduction in UPCR or C3/C4 normalization, Week 48, 39.5 mg BID, number of patients
[17] = early 15% reduction in UPCR or C3/C4 normalization, week 12, 23.7 mg BID
[18] = early 15% reduction in UPCR or C3/C4 normalization, week 12, 39.5 mg BID
[19] = early 15% reduction in UPCR or C3/C4 normalization, week 24, 23.7 mg BID
[20] = early 15% reduction in UPCR or C3/C4 normalization, week 24, 39.5 mg BID
[21] = early 15% reduction in UPCR or C3/C4 normalization, week 48, 23.7 mg BID
[22] = early 15% reduction in UPCR or C3/C4 normalization, week 48, 39.5 mg BID
[23] = early 20% reduction in UPCR or C3/C4 normalization, week 12, 23.7 mg BID
[24] = early 20% reduction in UPCR or C3/C4 normalization, week 12, 39.5 mg BID
[25] = early 20% reduction in UPCR or C3/C4 normalization, week 24, 23.7 mg BID
[26] = early 20% reduction in UPCR or C3/C4 normalization, week 24, 39.5 mg BID
[27] = early 20% reduction in UPCR or C3/C4 normalization, week 48, 23.7 mg BID
[28] = early 20% reduction in UPCR or C3/C4 normalization, week 48, 39.5 mg BID

Compound: C=C/C=C/C[C@@H](C)[C@@H](O)[C@H]1C(=O)N[C@@H](CC)C(=O)N(C)CC(=O)N(C)[C@@H](CC(C)C)C(=O)N[C@@H](C(C)C)C(=O)N(C)[C@@H](CC(C)C)C(=O)N[C@@H](C)C(=O)N[C@H](C)C(=O)N(C)[C@@H](CC(C)C)C(=O)N(C)[C@@H](CC(C)C)C(=O)N(C)[C@@H](C(C)C)C(=O)N1C [voclosporin]
- No Week 48 Partial Remission, No Early Drop or Normal [1, 3]: 3
- Week 48 Partial Remission, No Early Drop or Normal [1, 3]: 2
- No Week 48 Partial Remission, No Early Drop or Normal [1, 4]: 3
- Week 48 Partial Remission, No Early Drop or Normal [1, 4]: 3
- Early Drop or Normal No [1, 5]: 1
- No Week 48 Partial Remission, No Early Drop or Normal [1, 5]: 1
- Early Drop or Normal No ([1]; Early 25% reduction in UPCR or C3/C4 normalization, Week 24, 39.5 mg BID, number of patients): 10
- Early Drop or Normal No [1, 6]: 1
- No Week 48 Partial Remission, Early Drop or Normal [1, 6]: 10
- No Week 48 Partial Remission, No Early Drop or Normal [1, 6]: 1
- No Week 48 Partial Remission, Early Drop or Normal ([1]; Early 25% reduction in UPCR or C3/C4 normalization, Week 48, 39.5 mg BID, number of patients): 10
- No Week 48 Partial Remission, No Early Drop or Normal [1, 7]: 3
- Week 48 Partial Remission, No Early Drop or Normal [1, 7]: 2
- Early Drop or Normal No [1, 8]: 7
- No Week 48 Partial Remission, No Early Drop or Normal [1, 8]: 3
- Week 48 Partial Remission, No Early Drop or Normal [1, 8]: 4
- Early Drop or Normal No [1, 9]: 1
- No Week 48 Partial Remission, No Early Drop or Normal [1, 9]: 1
- Early Drop or Normal No ([1]; Early 30% reduction in UPCR or C3/C4 normalization, Week 24, 39.5 mg BID, number of patients): 10
- Early Drop or Normal No [1, 10]: 2
- No Week 48 Partial Remission, Early Drop or Normal [1, 10]: 9
- No Week 48 Partial Remission, No Early Drop or Normal [1, 10]: 2
- Early Drop or Normal No [1, 11]: 8
- No Week 48 Partial Remission, Early Drop or Normal [1, 11]: 8
- No Week 48 Partial Remission, No Early Drop or Normal [1, 11]: 8
- Early Drop or Normal No [1, 12]: 9
- Week 48 Partial Remission, No Early Drop or Normal [1, 12]: 4
- Early Drop or Normal No [1, 13]: 9
- No Week 48 Partial Remission, No Early Drop or Normal [1, 13]: 3
- Early Drop or Normal No [1, 14]: 4
- No Week 48 Partial Remission, Early Drop or Normal [1, 14]: 10
- No Week 48 Partial Remission, No Early Drop or Normal [1, 14]: 4
- Early Drop or Normal No ([1]; Early 35% reduction in UPCR or C3/C4 normalization, Week 24, 39.5 mg BID, number of patients): 10
- Early Drop or Normal No [1, 15]: 3
- No Week 48 Partial Remission, Early Drop or Normal [1, 15]: 8
- No Week 48 Partial Remission, No Early Drop or Normal [1, 15]: 3
- Early Drop or Normal No [1, 16]: 9
- No Week 48 Partial Remission, Early Drop or Normal [1, 16]: 7
- No Week 48 Partial Remission, No Early Drop or Normal [1, 16]: 9
- Early Drop or Normal No [1, 17]: 2
- No Week 48 Partial Remission, No Early Drop or Normal [1, 17]: 1
- Week 48 Partial Remission, No Early Drop or Normal [1, 17]: 1
- No Week 48 Partial Remission, No Early Drop or Normal [1, 18]: 3
- Week 48 Partial Remission, No Early Drop or Normal [1, 18]: 3
- Early Drop or Normal No [1, 19]: 1
- No Week 48 Partial Remission, No Early Drop or Normal [1, 19]: 1
- Early Drop or Normal No [1, 20]: 9
- No Week 48 Partial Remission, No Early Drop or Normal [1, 20]: 4
- Early Drop or Normal No [1, 21]: 1
- No Week 48 Partial Remission, Early Drop or Normal [1, 21]: 10
- No Week 48 Partial Remission, No Early Drop or Normal [1, 21]: 1
- Early Drop or Normal No [1, 22]: 4
- No Week 48 Partial Remission, No Early Drop or Normal [1, 22]: 4
- Early Drop or Normal No [1, 23]: 3
- No Week 48 Partial Remission, No Early Drop or Normal [1, 23]: 2
- Week 48 Partial Remission, No Early Drop or Normal [1, 23]: 1
- No Week 48 Partial Remission, No Early Drop or Normal [1, 24]: 3
- Week 48 Partial Remission, No Early Drop or Normal [1, 24]: 3
- Early Drop or Normal No [1, 25]: 1
- No Week 48 Partial Remission, No Early Drop or Normal [1, 25]: 1
- Early Drop or Normal No [1, 26]: 9
- No Week 48 Partial Remission, No Early Drop or Normal [1, 26]: 4
- Early Drop or Normal No [1, 27]: 1
- No Week 48 Partial Remission, Early Drop or Normal [1, 27]: 10
- No Week 48 Partial Remission, No Early Drop or Normal [1, 27]: 1
- Early Drop or Normal No [1, 28]: 4
- No Week 48 Partial Remission, No Early Drop or Normal [1, 28]: 4
- Normalization Yes ([2]; week 12, 23.7 mg BID): 26
- No Week 48 Partial Remission No Normalization ([2]; week 12, 39.5 mg BID): 10
- No Week 48 Partial Remission Normalization ([2]; week 12, 39.5 mg BID): 7
- Week 48 Partial Remission No Normalization ([2]; week 12, 39.5 mg BID): 33
- Week 48 Partial Remission Normalization ([2]; week 12, 39.5 mg BID): 29
- No Week 48 Partial Remission No Normalization ([2]; week 24, 23.7 mg BID): 10
- No Week 48 Partial Remission Normalization ([2]; week 24, 23.7 mg BID): 4
- Normalization Yes ([2]; week 24, 23.7 mg BID): 27
- Normalization Yes ([2]; week 24, 39.5 mg BID): 31
- No Week 48 Partial Remission No Normalization ([2]; week 48, 23.7 mg BID): 8
- No Week 48 Partial Remission Normalization ([2]; week 48, 23.7 mg BID): 2
- No Week 48 Partial Remission No Normalization ([2]; week 48, 39.5 mg BID): 11
- Normalization Yes ([2]; week 48, 39.5 mg BID): 32
